Publication PMC10528299, “Targeting FAK/PYK2 with SJP1602 for Anti-Tumor Activity in Triple-Negative Breast Cancer” (Current Issues in Molecular Biology, 2023)

Tests used:
Assay in all cases: Eurofins kinase profiling
Format in all cases: biochemical
c-RAF(h) = molecular target: T1, c-RAF(h) (Homo sapiens, UniProt P04049); settings: read-out: residual kinase activity c-RAF(h)
T1 construct: purchased Eurofins KinaseProfiler
Method in brief: (§1)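 Each kinase is incubated with compound (1 µM). Activity is then determined radiometrically from transfer of labeled phosphate.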

PKD2(h) = molecular target: T2, PKD2(h) (Homo sapiens, UniProt Q9BZL6); settings: read-out: residual kinase activity PKD2(h)
T2 construct: purchased Eurofins KinaseProfiler
T2 sequence (Q9BZL6 1-878): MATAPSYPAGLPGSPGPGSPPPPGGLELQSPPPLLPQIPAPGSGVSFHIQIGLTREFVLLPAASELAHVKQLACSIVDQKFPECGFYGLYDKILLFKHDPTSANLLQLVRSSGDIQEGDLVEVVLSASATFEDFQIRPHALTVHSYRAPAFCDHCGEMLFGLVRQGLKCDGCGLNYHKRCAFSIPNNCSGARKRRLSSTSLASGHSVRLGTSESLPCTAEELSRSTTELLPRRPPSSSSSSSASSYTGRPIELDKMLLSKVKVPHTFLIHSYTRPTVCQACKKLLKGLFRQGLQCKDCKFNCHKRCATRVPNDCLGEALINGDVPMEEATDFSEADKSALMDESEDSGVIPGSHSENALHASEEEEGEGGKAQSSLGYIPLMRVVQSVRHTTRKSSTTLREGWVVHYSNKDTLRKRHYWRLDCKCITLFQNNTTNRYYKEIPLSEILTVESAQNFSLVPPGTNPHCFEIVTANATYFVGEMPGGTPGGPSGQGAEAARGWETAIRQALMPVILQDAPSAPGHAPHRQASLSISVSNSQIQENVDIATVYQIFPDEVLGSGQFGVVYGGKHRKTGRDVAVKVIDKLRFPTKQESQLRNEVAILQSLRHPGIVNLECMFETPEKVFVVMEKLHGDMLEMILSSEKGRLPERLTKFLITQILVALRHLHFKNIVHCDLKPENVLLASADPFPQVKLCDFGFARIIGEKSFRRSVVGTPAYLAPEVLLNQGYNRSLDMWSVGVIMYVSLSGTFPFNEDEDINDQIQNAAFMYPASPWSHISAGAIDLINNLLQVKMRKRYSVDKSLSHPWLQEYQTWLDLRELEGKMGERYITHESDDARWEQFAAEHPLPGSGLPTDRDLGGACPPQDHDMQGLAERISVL
Method in brief: as §1

ErbB2(h) = molecular target: T3, ErbB2(h) (Homo sapiens, UniProt P04626); settings: read-out: residual kinase activity ErbB2(h)
T3 construct: purchased Eurofins KinaseProfiler
Method in brief: as §1

EGFR(T790M,L858R)(h) = molecular target: T4, EGFR(T790M,L858R)(h) (Homo sapiens, UniProt P00533, L858R/T790M); settings: read-out: residual kinase activity EGFR(T790M,L858R)(h)
T4 construct: purchased Eurofins KinaseProfiler
T4 sequence (P00533 25-1210 T790M/L858R): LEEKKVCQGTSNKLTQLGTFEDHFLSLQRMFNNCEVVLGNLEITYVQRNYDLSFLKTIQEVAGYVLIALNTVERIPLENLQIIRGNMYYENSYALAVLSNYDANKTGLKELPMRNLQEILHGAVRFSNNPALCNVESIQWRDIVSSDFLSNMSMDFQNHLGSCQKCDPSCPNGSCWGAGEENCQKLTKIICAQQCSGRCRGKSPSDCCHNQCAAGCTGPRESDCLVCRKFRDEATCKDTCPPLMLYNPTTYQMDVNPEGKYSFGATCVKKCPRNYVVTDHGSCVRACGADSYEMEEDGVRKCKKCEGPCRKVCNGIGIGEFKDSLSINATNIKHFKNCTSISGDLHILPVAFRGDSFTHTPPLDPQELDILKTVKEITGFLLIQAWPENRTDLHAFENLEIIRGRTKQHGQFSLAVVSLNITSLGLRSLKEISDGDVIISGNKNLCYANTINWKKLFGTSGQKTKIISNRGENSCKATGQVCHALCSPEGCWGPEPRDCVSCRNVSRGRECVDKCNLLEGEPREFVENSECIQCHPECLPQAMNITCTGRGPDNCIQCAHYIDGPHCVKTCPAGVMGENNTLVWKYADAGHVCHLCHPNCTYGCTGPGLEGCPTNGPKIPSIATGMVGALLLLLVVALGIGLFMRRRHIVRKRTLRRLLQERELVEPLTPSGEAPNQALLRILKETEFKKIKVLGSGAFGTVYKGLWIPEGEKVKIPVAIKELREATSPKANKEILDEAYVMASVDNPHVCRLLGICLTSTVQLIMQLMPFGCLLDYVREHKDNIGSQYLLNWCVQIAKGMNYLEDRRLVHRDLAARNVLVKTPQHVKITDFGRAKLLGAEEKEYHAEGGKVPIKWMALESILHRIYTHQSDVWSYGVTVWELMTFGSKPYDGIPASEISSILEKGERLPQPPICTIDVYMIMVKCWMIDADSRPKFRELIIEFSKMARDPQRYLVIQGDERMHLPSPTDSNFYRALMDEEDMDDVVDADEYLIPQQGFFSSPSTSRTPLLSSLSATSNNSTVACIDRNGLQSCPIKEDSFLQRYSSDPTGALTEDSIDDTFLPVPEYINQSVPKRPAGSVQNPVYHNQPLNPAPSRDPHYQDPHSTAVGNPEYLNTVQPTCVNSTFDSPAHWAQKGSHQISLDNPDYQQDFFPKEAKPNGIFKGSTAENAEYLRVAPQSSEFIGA
Method in brief: as §1

FGFR2(h) = molecular target: T5, FGFR2(h) (Homo sapiens, UniProt P21802); settings: read-out: residual kinase activity FGFR2(h)
T5 construct: purchased Eurofins KinaseProfiler
Method in brief: as §1

IGF-1R(h), activated = molecular target: T6, IGF-1R(h), activated (Homo sapiens, UniProt P08069); settings: 1 µM
T6 construct: purchased Eurofins KinaseProfiler
T6 sequence (P08069 31-1367): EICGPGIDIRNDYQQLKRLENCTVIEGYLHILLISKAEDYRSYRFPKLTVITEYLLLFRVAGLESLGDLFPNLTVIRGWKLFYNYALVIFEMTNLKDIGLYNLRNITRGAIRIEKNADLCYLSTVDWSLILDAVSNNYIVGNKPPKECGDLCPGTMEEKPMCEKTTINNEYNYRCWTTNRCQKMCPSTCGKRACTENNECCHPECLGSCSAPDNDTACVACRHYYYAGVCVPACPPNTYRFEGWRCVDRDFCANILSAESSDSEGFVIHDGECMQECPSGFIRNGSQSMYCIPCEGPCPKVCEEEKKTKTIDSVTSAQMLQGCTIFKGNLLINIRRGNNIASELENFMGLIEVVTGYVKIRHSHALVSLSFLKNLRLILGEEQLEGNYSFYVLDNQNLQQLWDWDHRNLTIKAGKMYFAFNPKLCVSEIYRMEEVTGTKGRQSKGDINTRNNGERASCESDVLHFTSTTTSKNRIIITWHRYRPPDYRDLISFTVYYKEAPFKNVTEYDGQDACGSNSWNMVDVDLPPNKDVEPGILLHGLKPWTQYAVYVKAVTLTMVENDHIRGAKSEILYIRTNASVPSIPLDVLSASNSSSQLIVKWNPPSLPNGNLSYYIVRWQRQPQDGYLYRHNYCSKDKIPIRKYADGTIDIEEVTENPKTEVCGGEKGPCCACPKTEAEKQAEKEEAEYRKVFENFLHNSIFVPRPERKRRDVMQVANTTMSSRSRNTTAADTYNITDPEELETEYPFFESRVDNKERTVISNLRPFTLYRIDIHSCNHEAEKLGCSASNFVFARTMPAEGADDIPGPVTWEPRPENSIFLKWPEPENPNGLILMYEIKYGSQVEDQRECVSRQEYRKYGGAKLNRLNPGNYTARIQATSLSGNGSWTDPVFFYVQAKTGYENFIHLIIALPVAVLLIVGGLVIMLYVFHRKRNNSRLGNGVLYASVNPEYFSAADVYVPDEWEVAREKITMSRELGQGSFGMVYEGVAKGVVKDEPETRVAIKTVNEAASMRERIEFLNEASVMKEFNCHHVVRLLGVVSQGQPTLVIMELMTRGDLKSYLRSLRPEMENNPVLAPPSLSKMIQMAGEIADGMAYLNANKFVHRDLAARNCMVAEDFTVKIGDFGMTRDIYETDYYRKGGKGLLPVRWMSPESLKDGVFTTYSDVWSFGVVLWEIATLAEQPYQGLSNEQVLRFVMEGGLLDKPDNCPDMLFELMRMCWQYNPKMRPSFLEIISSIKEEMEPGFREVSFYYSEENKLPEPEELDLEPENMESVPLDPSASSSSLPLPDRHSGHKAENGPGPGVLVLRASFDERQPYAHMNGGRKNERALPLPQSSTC
Method in brief: as §1

Aurora-A(h) = molecular target: T7, Aurora-A(h) (Homo sapiens, UniProt O14965); settings: read-out: residual kinase activity Aurora-A(h)
T7 construct: purchased Eurofins KinaseProfiler
T7 sequence (O14965 1-403): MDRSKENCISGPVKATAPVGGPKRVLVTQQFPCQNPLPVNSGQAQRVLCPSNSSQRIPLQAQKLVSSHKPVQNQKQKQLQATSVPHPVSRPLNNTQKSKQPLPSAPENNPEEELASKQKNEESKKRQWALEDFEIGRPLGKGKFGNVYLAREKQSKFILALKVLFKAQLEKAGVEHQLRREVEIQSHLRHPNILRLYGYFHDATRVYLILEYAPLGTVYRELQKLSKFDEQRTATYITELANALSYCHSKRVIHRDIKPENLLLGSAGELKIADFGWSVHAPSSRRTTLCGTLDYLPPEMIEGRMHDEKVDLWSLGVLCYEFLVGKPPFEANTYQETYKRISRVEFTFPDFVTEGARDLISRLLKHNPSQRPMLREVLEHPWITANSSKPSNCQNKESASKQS
Method in brief: as §1

DCAMKL3(h) = molecular target: T8, DCAMKL3(h) (Homo sapiens, UniProt Q9C098); settings: read-out: residual kinase activity DCAMKL3(h)
T8 construct: purchased Eurofins KinaseProfiler
T8 sequence (Q9C098 1-648): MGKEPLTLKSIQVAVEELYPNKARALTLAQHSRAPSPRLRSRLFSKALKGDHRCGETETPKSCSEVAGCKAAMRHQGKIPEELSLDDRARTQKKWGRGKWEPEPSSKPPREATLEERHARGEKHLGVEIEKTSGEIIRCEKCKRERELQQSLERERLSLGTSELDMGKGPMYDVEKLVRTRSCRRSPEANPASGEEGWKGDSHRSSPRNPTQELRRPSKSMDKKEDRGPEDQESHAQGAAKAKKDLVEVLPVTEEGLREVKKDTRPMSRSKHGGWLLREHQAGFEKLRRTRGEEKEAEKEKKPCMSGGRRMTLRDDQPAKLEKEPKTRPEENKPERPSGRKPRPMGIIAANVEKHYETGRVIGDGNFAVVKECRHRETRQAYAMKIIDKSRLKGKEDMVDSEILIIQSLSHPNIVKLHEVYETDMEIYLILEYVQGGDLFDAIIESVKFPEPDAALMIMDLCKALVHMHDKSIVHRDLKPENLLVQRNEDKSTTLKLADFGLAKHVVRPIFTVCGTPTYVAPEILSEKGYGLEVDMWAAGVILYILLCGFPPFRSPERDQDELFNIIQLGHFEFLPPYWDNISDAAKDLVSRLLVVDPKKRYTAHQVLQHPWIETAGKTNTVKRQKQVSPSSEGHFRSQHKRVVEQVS
Method in brief: as §1

Hck(h) = molecular target: T9, Hck(h) (Homo sapiens, UniProt P08631); settings: read-out: residual kinase activity Hck(h)
T9 construct: purchased Eurofins KinaseProfiler
T9 sequence (P08631 whole entry): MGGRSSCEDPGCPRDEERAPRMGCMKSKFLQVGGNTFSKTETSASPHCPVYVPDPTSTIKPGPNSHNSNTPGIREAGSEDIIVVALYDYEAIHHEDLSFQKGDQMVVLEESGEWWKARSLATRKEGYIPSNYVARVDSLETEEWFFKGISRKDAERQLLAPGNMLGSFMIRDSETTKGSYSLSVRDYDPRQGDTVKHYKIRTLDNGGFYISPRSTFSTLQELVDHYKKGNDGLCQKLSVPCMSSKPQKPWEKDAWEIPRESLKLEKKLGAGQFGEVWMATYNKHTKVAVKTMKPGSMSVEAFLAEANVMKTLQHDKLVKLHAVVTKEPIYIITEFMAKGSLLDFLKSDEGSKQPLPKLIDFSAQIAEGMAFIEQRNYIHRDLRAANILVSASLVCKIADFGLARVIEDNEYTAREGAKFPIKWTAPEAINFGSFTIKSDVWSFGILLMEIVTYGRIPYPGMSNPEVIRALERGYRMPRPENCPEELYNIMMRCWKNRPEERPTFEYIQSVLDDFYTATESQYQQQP
Method in brief: as §1

EphA2(h) = molecular target: T10, EphA2(h) (Homo sapiens, UniProt P29317); settings: read-out: residual kinase activity EphA2(h)
T10 construct: purchased Eurofins KinaseProfiler
T10 sequence (P29317 24-976): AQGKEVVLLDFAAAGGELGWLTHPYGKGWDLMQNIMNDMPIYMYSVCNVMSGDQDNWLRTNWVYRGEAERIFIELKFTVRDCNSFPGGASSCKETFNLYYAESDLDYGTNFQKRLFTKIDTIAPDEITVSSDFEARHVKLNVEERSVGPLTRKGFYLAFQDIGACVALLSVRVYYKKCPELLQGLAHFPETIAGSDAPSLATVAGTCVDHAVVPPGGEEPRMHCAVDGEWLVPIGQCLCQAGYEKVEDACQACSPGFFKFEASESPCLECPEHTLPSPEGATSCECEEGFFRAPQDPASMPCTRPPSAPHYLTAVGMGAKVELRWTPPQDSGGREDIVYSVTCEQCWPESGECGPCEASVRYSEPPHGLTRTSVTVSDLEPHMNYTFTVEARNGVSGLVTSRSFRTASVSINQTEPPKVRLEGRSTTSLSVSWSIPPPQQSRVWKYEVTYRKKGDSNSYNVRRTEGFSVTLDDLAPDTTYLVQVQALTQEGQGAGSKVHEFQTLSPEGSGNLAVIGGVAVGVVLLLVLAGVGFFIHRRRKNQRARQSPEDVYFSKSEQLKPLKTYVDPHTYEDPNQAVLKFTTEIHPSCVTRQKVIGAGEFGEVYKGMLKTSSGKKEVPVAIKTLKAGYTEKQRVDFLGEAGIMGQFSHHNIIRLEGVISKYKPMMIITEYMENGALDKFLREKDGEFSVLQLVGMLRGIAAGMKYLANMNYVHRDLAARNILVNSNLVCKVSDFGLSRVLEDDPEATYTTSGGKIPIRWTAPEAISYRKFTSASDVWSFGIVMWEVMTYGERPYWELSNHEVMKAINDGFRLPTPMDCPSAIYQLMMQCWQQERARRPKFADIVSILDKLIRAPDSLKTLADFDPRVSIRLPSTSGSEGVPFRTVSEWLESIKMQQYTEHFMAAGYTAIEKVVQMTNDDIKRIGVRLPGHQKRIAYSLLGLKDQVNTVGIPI
Method in brief: as §1

EGFR(L858R)(h) = molecular target: T11, EGFR(L858R)(h) (Homo sapiens, UniProt P00533, L858R); settings: read-out: residual kinase activity EGFR(L858R)(h)
T11 construct: purchased Eurofins KinaseProfiler
Method in brief: as §1

T1 sequence (P04049 whole entry): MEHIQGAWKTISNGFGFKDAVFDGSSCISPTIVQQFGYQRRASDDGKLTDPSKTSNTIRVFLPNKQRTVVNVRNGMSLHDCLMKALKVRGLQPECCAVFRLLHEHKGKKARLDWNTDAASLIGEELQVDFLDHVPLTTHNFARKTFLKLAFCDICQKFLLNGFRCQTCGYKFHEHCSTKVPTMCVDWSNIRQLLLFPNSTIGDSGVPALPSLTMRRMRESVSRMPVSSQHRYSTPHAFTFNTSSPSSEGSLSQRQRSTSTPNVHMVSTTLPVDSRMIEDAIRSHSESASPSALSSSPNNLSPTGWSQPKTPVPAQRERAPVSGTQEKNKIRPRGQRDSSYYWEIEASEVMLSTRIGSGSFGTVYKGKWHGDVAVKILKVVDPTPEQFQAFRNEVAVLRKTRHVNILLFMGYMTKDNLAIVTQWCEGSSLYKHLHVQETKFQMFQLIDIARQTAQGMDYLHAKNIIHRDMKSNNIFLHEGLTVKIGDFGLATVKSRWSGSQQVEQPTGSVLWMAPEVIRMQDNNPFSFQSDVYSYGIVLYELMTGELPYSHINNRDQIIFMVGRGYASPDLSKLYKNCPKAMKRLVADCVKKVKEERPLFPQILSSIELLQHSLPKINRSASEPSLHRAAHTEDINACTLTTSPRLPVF

Row | remaining activity at 1 µM (c-RAF(h)) [%] | remaining activity at 1 µM (PKD2(h)) [%] | remaining activity at 1 µM (ErbB2(h)) [%] | remaining activity at 1 µM (EGFR(T790M,L858R)(h)) [%] | remaining activity at 1 µM (FGFR2(h)) [%] | residual kinase activity IGF-1R(h), activated (IGF-1R(h), activated) | remaining activity at 1 µM (Aurora-A(h)) [%] | remaining activity at 1 µM (DCAMKL3(h)) [%] | remaining activity at 1 µM (Hck(h)) [%] | remaining activity at 1 µM (EphA2(h)) [%] | remaining activity at 1 µM (EGFR(L858R)(h)) [%] | Structure (SMILES)
1 | 72 | 90 | 94 | 88 | 98 | 108 | 43 | 98 | 100 | 92 | 33 | CONC(=O)c1ccccc1Nc1cc(Nc2cc(C)nn2C(C)C)ncc1Cl [GSK2256098]
2 | 80 | 116 | 122 | 65 | 46 | 74 | 12 | 42 | 99 | 91 | 134 | CNC(=O)c1ccc(Nc2ncc(C(F)(F)F)c(NCc3nccnc3N(C)S(C)(=O)=O)n2)cc1 [VS-6063, Defactinib]

Row | Structure (SMILES) | remaining activity at 1 µM (c-RAF(h)) [%] | remaining activity at 1 µM (PKD2(h)) [%] | remaining activity at 1 µM (ErbB2(h)) [%] | remaining activity at 1 µM (EGFR(T790M,L858R)(h)) [%] | remaining activity at 1 µM (FGFR2(h)) [%] | residual kinase activity IGF-1R(h), activated (IGF-1R(h), activated) | remaining activity at 1 µM (Aurora-A(h)) [%] | remaining activity at 1 µM (DCAMKL3(h)) [%] | remaining activity at 1 µM (Hck(h)) [%] | remaining activity at 1 µM (EphA2(h)) [%] | remaining activity at 1 µM (EGFR(L858R)(h)) [%]
3 | CNC(=O)c1cccc(C)c1Nc1nc(Nc2ccc(N3CCN(C4C5CC6CC4CC(O)(C6)C5)CC3)cc2OC)ncc1C(F)(F)F (stereo not drawn) [SJP1602, 2-((2-((4-(4-((2s,5r)-5-hydroxyadamantan-2-yl)piperazin-1-yl)-2-methoxyphenyl)amino)-5-(trifluoromethyl)pyrimidin-4-yl)amino)-N,3-dimethylbenzamide] | 90 | 116 | 113 | 88 | 90 | 105 | 48 | 98 | 105 | 105 | 133
